Patent US6747027B1, “Thiol sulfonamide metalloprotease inhibitors” (Pharmacia Corporation, priority 1996, dated 2004)

Columns and labels:
[1] = target: T1, recombinant human MMP-1 (Homo sapiens, UniProt P03956); test: In vitro metalloprotease inhibition, fluorogenic peptide assay (MMP-1); type: biochemical; conditions: recombinant human MMP-1, APMA activated; fluorogenic MCA peptide substrate 4 uM; pH 7.5, room temperature
T1 construct: made in house; host or cells: transfected HT-1080 cells (provided by Dr. Howard Welgus, Washington University)
T1 sequence (P03956 100-469): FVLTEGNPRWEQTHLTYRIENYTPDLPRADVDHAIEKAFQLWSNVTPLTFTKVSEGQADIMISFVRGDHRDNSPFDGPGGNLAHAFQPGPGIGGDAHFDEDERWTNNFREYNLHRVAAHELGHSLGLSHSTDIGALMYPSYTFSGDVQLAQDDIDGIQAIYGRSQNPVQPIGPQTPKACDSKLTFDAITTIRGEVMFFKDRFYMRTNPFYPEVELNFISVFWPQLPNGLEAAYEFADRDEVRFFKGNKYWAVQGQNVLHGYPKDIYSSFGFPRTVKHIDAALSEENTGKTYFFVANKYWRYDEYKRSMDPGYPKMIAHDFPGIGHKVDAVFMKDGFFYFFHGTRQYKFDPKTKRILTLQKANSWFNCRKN
Procedure: (§1) Certain of the compounds prepared in the manner described in Examples 1 to 223 were tested for activity by an in vitro assay. Following the procedures of Knight et al., FEBS Lett. 296(3):263 (1992). Briefly, 4-aminophenylmercuric acetate (APMA) or trypsin activated MMPs were incubated with various concentrations of the inhibitor compound at room temperature for 5 minutes (0.02% 2-mercapto-ethanol added to buffer for thiol compounds with 5 minutes or overnight incubation). More specifically, recombinant human MMP-13 and MMP-1 enzymes were prepared in laboratories of the inventors' employer. MMP-13 was expressed in baculovirus as a proenzyme, and purified first over a heparin agarose column and then over a chelating zinc chloride column. The proenzyme was activated by APMA for use in the assay. MMP-1 expressed in transfected HT-1080 was provided by Dr. Howard Welgus of Washington University, St. Louis, Mo. The enzyme was also activated using APMA and was then purified over a hydroxamic acid column.
(§2) The enzyme substrate is a methoxycoumarin-containing polypeptide having the following sequence:
(§3) MCA-ProLeuGlyLeuDpaAlaArgNH^2, wherein MCA is methoxycoumarin and Dpa is 3-(2,4-dinitrophenyl)-L-2,3-diaminopropionyl alanine. This substrate is commercially available from Baychem as product M-1895.
(§4) The buffer used for assays contained 100 mM Tris-HCl, 100 mM NaCl, 10 mM CaCl2 and 0.05 percent polyethyleneglycol(23) lauryl ether at a pH value of 7.5. Assays were carried out at room temperature, and dimethyl sulfoxide (DMSO) at a final concentration of 1 percent was used to dissolve inhibitor compound.
(§5) The assayed inhibitor compound in DMSO/buffer solution was compared to an equal amount of DMSO/buffer with no inhibitor as control using microfluor™ white plates (Dynatech). The inhibitor or control solution was maintained in the plate for 10 minutes and the substrate was added to provide a final concentration of 4 uM.
(§6) In the absence of inhibitor activity, a fluorogenic peptide is cleaved at the gly-leu peptide bond, separating the highly fluorogenic peptide from a 2.4-dinitrophenyl quencher, resulting in an increase of fluorescence intensity (excitation at 328 nm/emmision at 415 nm). Inhibition was measured as a reduction in fluorescent intensity as a function of inhibitor concentration, using a Perkin Elmer L550 plate reader. The IC50 values were calculated from those values. The results are set forth in the Inhibition Table below, reported in terms of IC50 to three significant figures.

[2] = target: T2, recombinant human MMP-13 (Homo sapiens, UniProt P45452); test: In vitro metalloprotease inhibition, fluorogenic peptide assay (MMP-13); type: biochemical; conditions: recombinant human MMP-13, APMA activated; fluorogenic MCA peptide substrate 4 uM; pH 7.5, room temperature
T2 construct: made in house
Procedure: as §1, §2, §3, §4, §5, §6

Compound	IC50 [1] [nM]	IC50 [2] [nM]
COc1ccc(S(=O)(=O)N(Cc2ccccc2)C(CS)CC(C)C)cc1 (racemic) [Example 29F, N-[1-(Mercaptomethyl)-3-methylbutyl]-N-(phenylmethyl)-4-methoxybenzenesulfonamide]	8000	1800
COc1ccc(S(=O)(=O)N(Cc2ccccc2)[C@H](C)CS)cc1 (racemic) [Example 56, N-(2-Mercapto-1R,S-methylethyl)-N-phenylmethyl-4-methoxybenzenesulfonamide benzenesulfonamide]	2000	67.5
C[C@H](CS)NS(=O)(=O)c1ccccc1 (single isomer, unassigned) [Example 151]	–	> 10000
COc1ccc(S(=O)(=O)N(CCS)Cc2ccccc2)cc1 [Example 7C, N-(2-Mercaptoethyl)-N-(phenylmethyl)-4-methoxybenzenesulfonamide]	4000	300
CCCCCN(CCS)S(=O)(=O)c1ccc(OC)cc1 [Example 8, N-(2-Mercaptoethyl)-N-pentyl-4-methoxybenzenesulfonamide]	4200	65
COc1ccc(S(=O)(=O)N(Cc2ccccc2)CC(C)S)cc1 (centres unmarked) [Example 10]	–	550
COc1ccc(S(=O)(=O)N(C)[C@H](C)CS)cc1 [Example 11D, N-(2-Mercapto-1R-methylethyl)-N-methyl-4-methoxybenzenesulfonamide]	300	32.5
COc1ccc(S(=O)(=O)N(Cc2ccccc2)[C@H](C)CS)cc1 [Example 12C, N-(2-Mercapto-1R-methylethyl)-N-(phenylmethyl)-4-methoxybenzenesulfonamide]	1300	38.5
COc1ccc(S(=O)(=O)N(CC(C)C)[C@H](C)CS)cc1 [Example 14C, N-(2-Mercapto-1R-methylethyl)-N-(2-methylpropyl)-4-methoxybenzenesulfonamide]	1060	46
CCCCOc1ccc(S(=O)(=O)N[C@H](C)CS)cc1 [Example 15, N-(2-Mercapto-1R-methylethyl)-4-(n-butoxy)benzenesulfonamide]	> 10000	75
COc1ccc(S(=O)(=O)N[C@H](C)CS)cc1 [Example 16B, N-(2-Mercapto-1R-methylethyl)-4-methoxybenzenesulfonamide]	7000	245
CCCCOc1ccc(S(=O)(=O)N(Cc2ccccc2)[C@H](C)CS)cc1 [Example 17C]	> 10000	260
C[C@H](CS)NS(=O)(=O)c1ccc(Cl)cc1 [Example 64, N-(2-mercapto-1R-methylethyl)-4-chlorobenzenesulfonamide]	–	900
C[C@H](CS)NS(=O)(=O)c1ccc(I)cc1 [Example 66, N-(2-mercapto-1R-methylethyl)-4-iodobenzenesulfonamide]	–	38
CCc1ccc(S(=O)(=O)N[C@H](C)CS)cc1 [Example 67, N-(2-mercapto-1R-methylethyl)-4-ethylbenzenesulfonamide]	–	570
CC(C)c1ccc(S(=O)(=O)N[C@H](C)CS)cc1 [Example 72, N-(2-mercapto-1R-methylethyl)-4-isopropylbenzenesulfonamide]	–	2300
C[C@H](CS)NS(=O)(=O)c1ccc(C(F)(F)F)cc1 [Example 73, N-(2-mercapto-1R-methylethyl)-4-(trifluoromethyl)-benzenesulfonamide]	–	2100
C[C@H](CS)NS(=O)(=O)c1ccc(C(C)(C)C)cc1 [Example 74, N-(2-mercapto-1R-methylethyl)-4-(t-butyl)benzenesulfonamide]	–	> 10000
Cc1cc(C)c(S(=O)(=O)N[C@H](C)CS)c(C)c1 [Example 79, N-(2-mercapto-1R-methylethyl)-2,4,6-trimethyl-benzenesulfonamide]	–	> 10000
CC(C)c1cc(C(C)C)c(S(=O)(=O)N[C@H](C)CS)c(C(C)C)c1 [Example 80, N-(2-mercapto-1R-methylethyl)-2,4,6-triisopropyl-benzenesulfonamide]	–	> 10000
C[C@H](CS)NS(=O)(=O)c1ccc(F)c(F)c1 [Example 81, N-(2-mercapto-1R-methylethyl)-3,4-difluoro-benzenesulfonamide]	–	6500
C[C@H](CS)NS(=O)(=O)c1ccc(Br)s1 [Example 85, N-(2-mercapto-1R-methylethyl)-5-bromo-2-thiophenesulfonamide]	–	9000
C[C@H](CS)NS(=O)(=O)c1ccc(Cl)s1 [Example 86, N-(2-mercapto-1R-methylethyl)-5-chloro-2-thiophenesulfonamide]	–	1700
C[C@H](CS)NS(=O)(=O)c1sc(Br)cc1Br [Example 87, N-(2-mercapto-1R-methylethyl)-3,5-dibromo-2-thiophenesulfonamide]	–	8500
C[C@H](CS)NS(=O)(=O)c1ccc(-c2ccon2)s1 [Example 88, N-(2-mercapto-1R-methylethyl)-5-(isoxazol-3-yl)-2-thiophenesulfonamide]	–	365

Compound	IC50 [1] [nM]	IC50 [2] [nM]
C[C@H](CS)NS(=O)(=O)c1ccc2oc3ccccc3c2c1 [Example 90, N-(2-mercapto-1R-methylethyl)-2-dibenzofuransulfonamide]	–	600
COc1ccc(S(=O)(=O)N(CCCS)Cc2ccccc2)cc1 [Example 97]	–	4000
COc1ccc(S(=O)(=O)N(CCCSC(C)=O)Cc2ccccc2)cc1 [Example 98]	–	> 10000
C[C@H](CS)NS(=O)(=O)c1ccc(OCC(F)(F)F)cc1OCC(F)(F)F [Example 104]	–	> 10000
CCCCCCCCCCCCCCCCOc1ccc(S(=O)(=O)N[C@H](C)CS)cc1 [Example 105]	–	3500
C[C@H](CS)NS(=O)(=O)c1ccc(Oc2cccc(Cl)c2C#N)cc1 [Example 108]	–	500
COc1ccc(S(=O)(=O)N[C@H](C)CS)c([N+](=O)[O-])c1 [Example 109]	–	> 10000
C[C@H](CS)NS(=O)(=O)c1ccc(CNC(=O)c2ccccc2)s1 [Example 146]	–	> 10000
C[C@H](CS)NS(=O)(=O)c1ccc(C(F)(F)F)cn1 [Example 148]	–	> 10000
C[C@H](CS)NS(=O)(=O)c1cc(C(F)(F)F)n(C)n1 [Example 149]	–	> 10000
CSc1nccc(S(=O)(=O)N[C@H](C)CS)n1 [Example 150]	–	9000
C[C@H](CS)NS(=O)(=O)c1cc(Br)c(Cl)s1 [Example 152]	–	3000
C[C@H](CS)NS(=O)(=O)c1ccc(CNC(=O)c2ccc(Cl)cc2)s1 [Example 153]	–	> 10000
CCc1cc(Br)ccc1S(=O)(=O)N[C@H](C)CS [Example 195]	–	464
C[C@H](CS)NS(=O)(=O)c1ccccc1C(F)(F)F [Example 196]	–	> 10000
COC(=O)c1ccccc1S(=O)(=O)N[C@H](C)CS [Example 198]	–	2300
C[C@H](CS)NS(=O)(=O)c1ccc(Br)cc1OC(F)(F)F [Example 204]	–	> 10000
C[C@H](CS)NS(=O)(=O)c1cccc2cccnc12 [Example 206]	–	> 10000
CCCCOc1cc(C(C)(C)CC(C)(C)C)ccc1S(=O)(=O)N[C@H](C)CS [Example 207]	–	> 10000
CCCCOc1ccc(S(=O)(=O)N[C@@H](CS)C(=O)O)cc1 [Example 210]	–	1320
C[C@H](CS)NS(=O)(=O)c1cn(C)cn1 [Example 214]	–	> 10000
N-(2-mercapto-1R-methylethyl)-2-(trifluoromethyoxy)-benzenesulfonamide [Example 77]	–	> 10000
N-(2-mercapto-1R-methylethyl)-2-napthylenesulfonamide [Example 83]	–	1150
N-(2-mercapto-1R-methylethyl)-4-(n-butyl)benzenesulfonamide [Example 69]	–	175
